In article PMC5403950, “Mechanism Underlying the Reversal of Drug Resistance in P-Glycoprotein-Expressing Leukemia Cells by Pinoresinol and the Study of a Derivative” (Frontiers in Pharmacology, 2017):

Tests used:
Lucena 1 cells = test: Multidrug resistance reversal assay (MTT) with DOX; assay type: cell-based, human
Protocol: (§1) Briefly, 5 × 10^4 Lucena 1 cells per well were seeded in 96-well plates containing RPMI-1640 medium in the presence of DOX alone or in combination with the tested compounds dissolved in ethanol or acetonitrile as appropriate. DOX was added to reach final concentrations of 0.05–431 μM. The compounds were assayed at the highest non-toxic concentration observed in both cell lines (cytotoxicity ≤ 20%, Cytotoxicity (%) = [1-(Optical density treatment-Optical density DMSO)/(Optical density control-Optical density DMSO)] x 100, determined by MTT proliferation assay (Joray et al., [2015]); maximum concentration tested 40 μg mL^−1). Following the primary screening, compounds 14 and 16 (dissolved in ethanol) were tested at serial dilutions. […] Subsequently, the supernatants were removed and replaced with 100 μL DMSO to solubilize the resulting purple formazan crystals produced from metabolically viable cells. Absorbance was measured with an iMark micro-plate reader (Bio-Rad, USA) at 595 nm.
(§2) The same reversal assay was performed in K562 cells, in order to discard a decrease in the IC50 of DOX due to effects other than P-gp inhibition. The reversal fold (RF) values for the tested compounds, which indicate their capacity to reduce resistance to DOX, were calculated by dividing the IC50 of DOX alone by the IC50 of DOX in the presence of the tested compounds (Xu et al., [2014]).

K562 cells [1] = test: Multidrug resistance reversal assay (MTT) with DOX, sensitive parental line; assay type: cell-based, human; details: compound at 14 μM
Protocol: as §1, §2

K562 cells [2] = test: Doxorubicin intracellular accumulation assay (flow cytometry), K562; assay type: cell-based, human; details: up to the maximum concentration evaluated
Text: […]. […] Viability controls were included in all the experiments.

[3] = Cytotoxicity on peripheral blood mononuclear cells (MTT); assay type: cell-based, human; details: human, peripheral blood mononuclear cells (PBMC), PHA 10 μg mL−1, confidence limits in brackets
Protocol: (§3) The cytotoxicity of 14 and 16 on peripheral blood mononuclear cells (PBMC) was evaluated by MTT assay (Joray et al., [2015]). PBMC were collected from fresh heparinized blood and separated by density gradient centrifugation (Ficoll®) as described by Rennó et al. ([2008]). As the current study required samples from healthy human volunteer donors, ethical approval was provided by the Catholic University of Córdoba Research Ethics Board. Signed informed consents were obtained from donors. […] Absorbance (Abs) and percentage of cytotoxicity were determined as described above and the IC50 values were calculated. The experiment was carried out in two separate stages.

[4] = tested on: peripheral blood mononuclear cells (PBMC); test: as above; assay type: cell-based, human; details: PHA 10 μg mL−1, 48 h, confidence limits in brackets
Protocol: as §3

P-gp [5] = biological target: T1, P-gp (Homo sapiens, UniProt P08183); details: Lucena 1; 1 h pre-incubation, 5 μM DOX 1 h
P-gp [6] = biological target: T1, P-gp; test: in vitro; details: Lucena 1 cells, probe doxorubicin (DOX) 5 μM

T1 sequence (P08183 whole entry): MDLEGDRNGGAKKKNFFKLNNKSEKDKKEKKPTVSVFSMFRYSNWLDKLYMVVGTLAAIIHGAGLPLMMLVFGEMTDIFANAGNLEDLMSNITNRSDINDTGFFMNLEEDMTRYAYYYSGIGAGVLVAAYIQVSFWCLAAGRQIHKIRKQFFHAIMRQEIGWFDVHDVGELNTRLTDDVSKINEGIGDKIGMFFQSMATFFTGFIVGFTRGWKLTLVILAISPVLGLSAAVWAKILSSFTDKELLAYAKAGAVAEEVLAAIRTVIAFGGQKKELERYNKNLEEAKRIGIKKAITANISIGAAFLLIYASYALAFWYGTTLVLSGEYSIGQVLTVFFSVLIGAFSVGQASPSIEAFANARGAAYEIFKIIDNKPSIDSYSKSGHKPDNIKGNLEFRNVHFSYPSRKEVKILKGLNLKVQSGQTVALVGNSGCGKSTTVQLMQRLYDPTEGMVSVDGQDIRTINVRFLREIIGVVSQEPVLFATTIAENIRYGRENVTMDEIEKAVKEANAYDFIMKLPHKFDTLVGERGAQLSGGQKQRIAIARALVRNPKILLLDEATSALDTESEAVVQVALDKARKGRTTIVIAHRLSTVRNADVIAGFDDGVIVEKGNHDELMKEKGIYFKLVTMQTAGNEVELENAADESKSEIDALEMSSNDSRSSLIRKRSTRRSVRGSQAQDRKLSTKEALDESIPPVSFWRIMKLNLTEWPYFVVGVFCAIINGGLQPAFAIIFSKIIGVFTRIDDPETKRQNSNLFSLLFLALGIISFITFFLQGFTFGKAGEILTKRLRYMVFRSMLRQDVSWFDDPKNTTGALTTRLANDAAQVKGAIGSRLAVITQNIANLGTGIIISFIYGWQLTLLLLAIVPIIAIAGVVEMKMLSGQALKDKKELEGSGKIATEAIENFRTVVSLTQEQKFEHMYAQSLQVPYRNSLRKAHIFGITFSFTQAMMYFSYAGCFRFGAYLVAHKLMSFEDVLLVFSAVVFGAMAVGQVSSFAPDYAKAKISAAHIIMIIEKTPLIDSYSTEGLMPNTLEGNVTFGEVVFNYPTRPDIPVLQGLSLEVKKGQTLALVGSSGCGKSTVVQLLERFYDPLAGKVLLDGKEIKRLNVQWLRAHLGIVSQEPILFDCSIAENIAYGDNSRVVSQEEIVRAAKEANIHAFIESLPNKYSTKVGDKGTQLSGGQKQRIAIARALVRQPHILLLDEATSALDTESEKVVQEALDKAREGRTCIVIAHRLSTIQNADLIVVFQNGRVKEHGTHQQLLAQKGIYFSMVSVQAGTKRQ

COc1cc([C@H]2OC[C@]3(OC(C)=O)[C@@H](c4ccc(O)c(OC)c4)OC[C@H]23)ccc1O [Compound 16, 1-acetoxy-(+)-pinoresinol]
Minimum effective concentration (MEC) in the reversal assay (potentiation of DOX toxicity from) (Lucena 1 cells; Lucena 1, DOX): 0.11 µM
RF Lucena 1 (Lucena 1 cells; compound at 0.11 μM, DOX): 1.4
RF Lucena 1 (Lucena 1 cells; compound at 14 μM, DOX): 22.7
Effectiveness of 16 relative to 14 according to the MECs (Lucena 1 cells; reversal and accumulation assays): 64 times
Effect on DOX activity in K562 (K562 cells [1]): no potentiation
RF K562 (K562 cells [1]; DOX): 1.05 ± 0.14
DOX accumulation in K562 (K562 cells [2]): no increase in DOX accumulation
IC50 at 48 h [3]: 103 µM
IC50 [4]: 103 µM
Minimum effective concentration (MEC) in the DOX accumulation assay (P-gp [5]): 0.87 µM
activity at 0.87 µM (P-gp [6]): 62%
activity at 14 µM (P-gp [6]): 141%
